Publication PMC3304435 (Biochemistry, 2012)

Biological target: Escherichia coli RtcB ligase (Escherichia coli, UniProt P46850)
Type: biochemical
Settings: Mn2+; 3′-P / 5′-OH tRNA-mimic RNA substrate; estimated upper limit

Chain of Escherichia coli RtcB ligase (P46850 whole entry): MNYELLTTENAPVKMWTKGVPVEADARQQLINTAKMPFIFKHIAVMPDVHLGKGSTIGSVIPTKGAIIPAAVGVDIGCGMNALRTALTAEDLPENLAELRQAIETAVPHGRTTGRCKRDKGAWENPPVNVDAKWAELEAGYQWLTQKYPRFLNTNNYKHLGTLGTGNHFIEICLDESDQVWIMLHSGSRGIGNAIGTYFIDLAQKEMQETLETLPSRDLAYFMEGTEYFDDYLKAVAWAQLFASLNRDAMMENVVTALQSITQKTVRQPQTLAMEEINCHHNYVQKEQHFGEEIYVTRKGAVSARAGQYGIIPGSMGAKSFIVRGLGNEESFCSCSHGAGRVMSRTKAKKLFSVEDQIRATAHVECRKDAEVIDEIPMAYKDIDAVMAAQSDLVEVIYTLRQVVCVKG

Km: < 16 µM
Compound: Nc1nc2c(ncn2[C@@H]2O[C@H](COP(=O)(O)OP(=O)(O)OP(=O)(O)O)[C@@H](O)[C@H]2O)c(=O)[nH]1 [GTP]
